Reference: patent publication US20110091375A1, “USE OF THE COMBINATION COMPRISING TEMOZOLOMIDE AND TNF-ALPHA FOR TREATING GLIOBLASTOMA” (THE UNIVERSITY OF CHICAGO, priority 2004, published 2011)
Where a SMILES comes first, the peptide text is derived from it. The star is where a group is joined. Cbz = O=C(OCc1ccccc1)*; CH2F = FC*

What was measured:
Format in all cases: cell-based, human
JNK = JNK phosphorylation (activation), Western blot
Procedure: (§1) 20 μg of whole U87 cell (or nuclear) lysate was subjected to sodium dodecyl sulfate (SDS)-polyacrylamide gel electrophoresis (PAGE). Following electro-transfer, Immobilon-P membranes (Millipore Corp. Burlington, Mass., USA.) were probed with primary polyclonal antibody against IκBα, phospho-Ser32-IκBα, SAPK/JNK, phospho-Thr183/Tyr185-SAPK/JNK, p65, phospho-Ser536-p65 (Cell Signaling Technology Inc. Beverly, […]., USA) diluted 1:1000 overnight at 4° C. Anti-rabbit IgG HRP-linked secondary antibody (Cell Signaling Technology) was diluted 1:1000 in blocking buffer and applied for 1 h at room temperature. Immunoreactive bands were detected by SuperSignal enhanced chemiluminescence (ECL) (Pierce, Rockford, Ill., USA) and exposed to Kodak X-Omat film.

U87 cells [1] = assay: Flow cytometric analysis of apoptosis (fractional DNA content, annexin V binding)
Procedure: Fractional DNA content: U87 cells (10^5) were plated overnight at 37° C. with 5% CO2. The cells were then treated with TNFα (10 ng/mL) and/or TMZ (100 μM). At 72 h the cells were washed in PBS and fixed in ice-cold 70% (v/v) ethanol. The cells were washed twice and incubated in RNase (1 mg/mL) for 30 m at 37° C., then incubated in propidium iodide (PI) solution (100 ug/mL) for […] at 4° C. Flow cytometric analysis was performed on a FACSort instrument (Becton Dickinson Immunocytometry Systems, San Jose, Calif.), and the data were analyzed using the CellQuest software (Becton Dickinson).
Annexin V binding (van Engeland, M. et al. (1998) Cytometry 31(1):1-9): At 72 h cells were washed in PBS and incubated in the dark for 15 m with binding buffer containing 5 μl of Annexin V-FITC and 5 μl of PI (Annexin V-FITC apoptosis detection kit II). The data was analyzed by Flowjo analysis software (Tree Star Inc., Ashland, Oreg.).
Cells were either un-transfected or co-transfected with pRC-CMV-p65 or pRC-CMV in the presence of a GFP plasmid at a ratio of 4:1. Under these conditions, cells expressing GFP also expressed the co-transfected plasmid (Tang, F. et al. (2002) Mol Cell Biol 22:8571-8579). Cells were then left untreated or treated as described in the figure legends. At 72 h cells were washed in PBS and incubated in the dark for 15 m with binding buffer containing 5 μl of Annexin V-FITC and 5 μl of Propidium iodide (PI). In transfected cells, annexin V binding was assessed in GFP positive cells. Data was analyzed by Flowjo analysis software (Tree Star Inc., Ashland, Oreg., USA) as described in U.S. Provisional Application No. 60/604,251 (Yamini, B. et al. (2004) Cancer Res 64:6381-6384).

U87 cells [2] = assay: Measurement of superoxide production (hydroethidine oxidation); details: P<0.05 vs TNFα+TMZ
Procedure: U87 cells were plated at a density of 10^6 cells in flat-bottom 6-well tissue culture plates, incubated overnight and treated as indicated in the figure legend. Cells were then washed, resuspended in PBS and 1 μL of 10 mM hydroethidine (HE) per mL cell suspension (10 μM final concentration) was added and incubated for 5 m at 37° C. Cells were harvested and analyzed on a flow cytometer (FACSort; BD Biosciences) with excitation at 488 nm and emission collected using a 620-670 nm […] long-pass filter. Data was analyzed by Flowjo software.

U87 cells [3] = assay: U87 cell viability (Trypan Blue dye exclusion, MTS)
Procedure: Trypan Blue dye exclusion method was employed. 10^4 U87 cells were plated and incubated at 37° C. overnight. Subsequently, the cells were contacted with media containing TNFα (10 ng/mL) and/or TMZ (100 μM), incubated for 3 h, and washed. […] All of the studies were performed in triplicate.

IκBα = assay: TNFα-induced IκBα degradation and phosphorylation (Western blot / kinase assay); details: at 15 m, TNFα with or without TMZ pretreatment
Procedure: Cells were then washed with 10 mL ice-cold PBS, scraped from the dish, and pelleted by centrifugation at 1000 rpm for 5 m at 4° C. Cell pellets were resuspended in 400 μl of ice-cold buffer A (10 mM HEPES, pH 7.9; 10 mM KCl; 0.1 mM EDTA; 1 mM DTT; 0.5 mM phenylmethysulfonylfluoride [PMSF]; 1 μg/mL leupeptin; 5 μg/mL aprotinin) and allowed to swell on ice for 15 m. Following the addition of 25 μl of 10% NP-40, the suspension was vortexed for 10 s and centrifuged at 14,500 rpm for 1 m at 4° C. Nuclei were resuspended in 50 μl of ice-cold buffer B (20 mM HEPES, pH 7.9; […]; 1 mM EDTA; 1 mM DTT; 1 mM PMSF; 25% glycerol; 1 μg/mL leupeptin; 5 μg/mL aprotinin) and incubated on ice for 15 m. The nuclear suspension was then centrifuged at 14,500 rpm for 5 m at 4° C. and the supernatant containing the nuclear proteins was transferred to a clean tube. Protein concentrations for each sample were determined by the Bradford method (Bio-Rad, Richmond, Calif., USA) and were adjusted to 2 μg/μl by the addition of buffer B.
as §1
IκK was immunoprecipitated from treated U87 cell extracts with anti-IKKβ antibody, (Santa Cruz Biotechnology, Santa Cruz, Calif., USA). […] Kinase activity was quantified using a Phosphoimager and Equal protein loading determined by immunoblotting with anti-IκKβ antibody (Upstate USA, Charlottesville, Va., USA). […]

[4] = pretreatment before TMZ and TNFα

Q: What does the source list for `CC(=O)N[C@@H](CS)C(=O)O` [NAC, N-acetylcystein]?
A: reduction of delayed JNK activation induced by combination TMZ and TNFα (JNK; U87, NAC pretreatment): 1.7 fold; transient JNK activation, NAC pretreatment (JNK; U87, TMZ and TNFα): without affecting; effect on cell death, pretreatment alone (U87 cells [1]; U87): minimal effects; apoptosis induced by combination TMZ and TNFα, inhibitor pretreatment (U87 cells [1]; annexin V binding, U87, P<0.01 vs TNFα+TMZ): significantly reversed; increase in O2^.− induced by TMZ and TNFα, NAC pretreatment (U87 cells [2]): significantly inhibited

Q: Which “JNK activation induced by TMZ and TNFα, inhibitor pretreatment” value (JNK; [4]) does the source give for `COC(=O)C[C@H](NC(=O)[C@H](C)NC(=O)[C@@H](NC(=O)OCc1ccccc1)C(C)C)C(=O)CF` [zVAD] (Cbz-Val-Ala-Asp(OMe)-CH2F) here?
A: did not inhibit

Q: And the “cytotoxicity induced by combined treatment with TMZ and TNFα, inhibitor pretreatment” value (U87 cells [3]; [4])?
A: completely reversed

Q: TNFα was tested. Which “JNK phosphorylation (activation)” value (JNK; glioma cells) did it give?
A: transiently increased

Q: What about the “U87 cell apoptosis (sub-G1 hypodiploid/apoptotic peak)” value (U87 cells [1]; fractional DNA content, 72 h, TNFα 10 ng/mL and/or TMZ 100 μM) of the same compound?
A: minimal effect

Q: And the “degradation of IκBα” value (IκBα)?
A: complete degradation

Q: What about the “effect on U87 cell viability” value (U87 cells [3]; 10 ng/mL TNFα and/or 100 μM TMZ) of the same compound?
A: Minimal effects
